In article PMC10046961, “High-Throughput Screening Assay for Detecting Drug-Induced Changes in Synchronized Neuronal Oscillations and Potential Seizure Risk Based on Ca^2+ Fluorescence Measurements in Human Induced Pluripotent Stem Cell (hiPSC)-Derived Neuronal 2D and 3D Cultures” (Cells, 2023):
Like-named read-outs stand apart in the source and are kept apart here. Marks after values point to notes of the source that are not given here.

How the values were obtained:
[1] = system: hiPSC-derived neurons co-cultured with human primary astrocytes in 2D; test: Ca2+ transient oscillation assay (FDSS), 2D co-culture; type: cell-based; details: for activation at 0.37 µM / activation at 1.11 µM / activation at 3.33 µM / activation at 10 µM / activation at 30 µM: Homo sapiens, 1 h, 60 min
In short: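 Cultures were 10,000 CW50065 hiPSC excitatory neurons plus 2500 primary human astrocytes per well. Recordings used Cal-520 dye in HBSS/HEPES/glucose at 37 °C, with a 470/540 nm read at 2 Hz. Oscillations were stabilized with 0.04% DMSO, read for 20 min, then read again 60 min after compound addition (final DMSO 0.1%).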

[2] = system: hiPSC-derived neurons co-cultured with human primary astrocytes in 3D; test: Ca2+ transient oscillation assay (FDSS), 3D spheroids; type: cell-based; details: for Area under the curve - 3D Mean / Peak Number—3D Mean / Peak amplitude - 3D Mean / Peak width - 3D Mean / Peak-to-peak interval - 3D Mean: 60 min
In short: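 Fura-2 fluorescence was read twice for 20 min each: a baseline 10 min after 0.04% DMSO, and again 60 min after compound addition at nominal final concentration. The 3D co-cultures (1:1 hiPSC neurons from a donor and human astrocytes, 8000 each) matured 5 weeks in BrainPhys medium after a 1-week differentiation.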

[3] = ref PharmaPendium, cited from earlier work
[4] = read-out: Area under the curve - 2D Mean
[5] = read-out: Peak amplitude - 2D Mean
[6] = read-out: Peak-to-peak interval - 2D Mean
[7] = Table 1, peak plasma concentration in men, free therapeutic Cmax
[8] = Table 2, highest plasma concentration in humans after the therapeutic dose

## CNCCCC12CCC(c3ccccc31)c1ccccc12 [Maprotiline]
[1]; 2D format
  effect on peak number / Ca2+ neuronal oscillations, in words: significantly reduced peak number
[1]; [4]
  activation at 0.37 µM: 12.2%
  activation at 1.11 µM: -55.2%
  activation at 3.33 µM: -100%
  activation at 10 µM: -100%
[1]; read-out: Peak Number—2D Mean
  activation at 0.37 µM: -0.7%
  activation at 1.11 µM: 0.5%
  activation at 3.33 µM: -100%
  activation at 10 µM: -100%
[1]; [5]
  activation at 0.37 µM: 8.3%
  activation at 1.11 µM: -19.8%
  activation at 3.33 µM: -100%
  activation at 10 µM: -100%
[1]; read-out: Peak width - 2D Mean
  activation at 0.37 µM: 4.5%
  activation at 1.11 µM: -57.2%
  activation at 3.33 µM: -100%
  activation at 10 µM: -100%
[1]; [6]
  activation at 0.37 µM: 1.8%
  activation at 1.11 µM: 11.7%
  activation at 3.33 µM: -100%
  activation at 10 µM: -100%
[2]; 0.37 µM
  Area under the curve - 3D Mean: 139.7 % change from baseline
  Peak Number—3D Mean: −16.5 % change from baseline
  Peak amplitude - 3D Mean: 116.3 % change from baseline
  Peak width - 3D Mean: 6.2 % change from baseline
  Peak-to-peak interval - 3D Mean: 6.2 % change from baseline
[2]; 1.11 µM
  Area under the curve - 3D Mean: 133.4 % change from baseline
  Peak Number—3D Mean: −8.2 % change from baseline
  Peak amplitude - 3D Mean: 131.3 % change from baseline
  Peak width - 3D Mean: −1.0 % change from baseline
  Peak-to-peak interval - 3D Mean: 8.4 % change from baseline
[2]; 3.33 µM
  Area under the curve - 3D Mean: 123.1 % change from baseline
  Peak Number—3D Mean: −7.9 % change from baseline
  Peak amplitude - 3D Mean: 130.1 % change from baseline
  Peak width - 3D Mean: −3.2 % change from baseline
  Peak-to-peak interval - 3D Mean: 10.6 % change from baseline
[2]; 10 µM
  Area under the curve - 3D Mean: 11.9 % change from baseline
  Peak Number—3D Mean: 1.9 % change from baseline
  Peak amplitude - 3D Mean: 72.2 % change from baseline
  Peak width - 3D Mean: −40.8 % change from baseline
  Peak-to-peak interval - 3D Mean: −4.1 % change from baseline
[2]; 3D-cultured
  effect on peak number of oscillations, in words: did not significantly change the peak number
[3]; [7]
  Free Cmax: 60 nM
[3]; [8]
  Free Cmax: 60 nM

## CC(=O)Nc1ccc(O)cc1 [Acetaminophen]
[1]; 2D
  effect on peak count within expected therapeutic exposure levels: did not significantly reduce peak count
[1]; 2D, 30 µM, listed as Paracetamol
  effect on Ca2+ neuronal oscillations / peak count at 30 µM, in words: did reduce
[1]; [4]
  activation at 1.11 µM: 23%
  activation at 3.33 µM: 35.8%
  activation at 10 µM: 13.2%
[1]; read-out: Peak Number—2D Mean
  activation at 1.11 µM: -11.7%
  activation at 3.33 µM: -25%
  activation at 10 µM: -18.2%
[1]; [5]
  activation at 1.11 µM: 8.8%
  activation at 3.33 µM: 12.3%
  activation at 10 µM: -0.3%
[1]; read-out: Peak width - 2D Mean
  activation at 1.11 µM: 13%
  activation at 3.33 µM: 34.3%
  activation at 10 µM: 16.2%
[1]; [6]
  activation at 1.11 µM: 34%
  activation at 3.33 µM: -35.3%
  activation at 10 µM: -14.5%
[1]; 30 µM, read-out: Area under the curve - 2D Mean
  activation at 30 µM: -93.2%
[1]; 30 µM, read-out: Peak Number—2D Mean
  activation at 30 µM: -94.5%
[1]; 30 µM, read-out: Peak amplitude - 2D Mean
  activation at 30 µM: -89.8%
[1]; 30 µM, read-out: Peak width - 2D Mean
  activation at 30 µM: -92.5%
[1]; 30 µM, read-out: Peak-to-peak interval - 2D Mean
  activation at 30 µM: -100%
[2]; 1.11 µM
  Area under the curve - 3D Mean: 104.3 % change from baseline
  Peak Number—3D Mean: 2.2 % change from baseline
  Peak amplitude - 3D Mean: 97.4 % change from baseline
  Peak width - 3D Mean: 0.6 % change from baseline
  Peak-to-peak interval - 3D Mean: 12.7 % change from baseline
[2]; 3.33 µM
  Area under the curve - 3D Mean: 121.7 % change from baseline
  Peak Number—3D Mean: −3.0 % change from baseline
  Peak amplitude - 3D Mean: 106.4 % change from baseline
  Peak width - 3D Mean: 5.9 % change from baseline
  Peak-to-peak interval - 3D Mean: 17.4 % change from baseline
[2]; 10 µM
  Area under the curve - 3D Mean: 122.4 % change from baseline
  Peak Number—3D Mean: 12.5 % change from baseline
  Peak amplitude - 3D Mean: 108.6 % change from baseline
  Peak width - 3D Mean: 6.3 % change from baseline
  Peak-to-peak interval - 3D Mean: −6.2 % change from baseline
[2]; 30 µM
  Area under the curve - 3D Mean: 132.0 % change from baseline
  Peak Number—3D Mean: 47.2 * % change from baseline
  Peak amplitude - 3D Mean: 113.9 % change from baseline
  Peak width - 3D Mean: 9.0 % change from baseline
  Peak-to-peak interval - 3D Mean: −8.8 % change from baseline
[3]; [7]
  Free Cmax: 460 nM
[3]; [8]
  Free Cmax: 460 nM
